From US8952024B2, “Herbicidal pyrimidone derivatives” (E I du Pont de Nemours and Company, priority 2009, dated 2015)

Legend:
Assay in all cases: Test B pre-/postemergence plant response
Type in all cases: in vivo
[1] = tested on: giant foxtail (Setaria faberii)
Procedure, shortened: (§1)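 Each species received compound formulated in non-phytotoxic solvent with surfactant, either at planting into a loam and sand blend or as a foliar spray once plants reached 2 to 18 cm in peat-based medium. Plants stayed in the greenhouse 13 to 15 days before visual evaluation against controls, scored 0 (no effect) to 100 (complete control).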

[2] = tested on: large crabgrass (Digitaria sanguinalis)
Procedure, shortened: as §1

[3] = tested on: downy bromegrass (Bromus tectorum)
Procedure, shortened: as §1

[4] = tested on: blackgrass (Alopecurus myosuroides)
Procedure, shortened: as §1

[5] = tested on: johnsongrass (Sorghum halepense)
Procedure, shortened: as §1

kochia (Kochia scoparia) = conditions: Postemergence
Procedure, shortened: as §1

corn (Zea mays) = tested on: corn (Zea mays)
Procedure, shortened: as §1

[6] = tested on: lambsquarters (Chenopodium album)
Procedure, shortened: as §1

[7] = tested on: Surinam grass (Brachiaria decumbens)
Procedure, shortened: as §1

[8] = tested on: goosegrass (Eleusine indica)
Procedure, shortened: as §1

[9] = tested on: ragweed (common ragweed, Ambrosia elatior)
Procedure, shortened: as §1

[10] = tested on: yellow nutsedge (Cyperus esculentus)
Procedure, shortened: as §1

[11] = tested on: Italian ryegrass (Lolium multiflorum)
Procedure, shortened: as §1

[12] = tested on: velvetleaf (Abutilon theophrasti)
Procedure, shortened: as §1

[13] = tested on: bermudagrass (Cynodon dactylon)
Procedure, shortened: as §1

[14] = tested on: woolly cupgrass (Eriochloa villosa)
Procedure, shortened: as §1

[15] = tested on: green foxtail (Setaria viridis)
Procedure, shortened: as §1

[16] = Postemergence, 31 g ai/ha, 0 to 100 scale (0 no effect, 100 complete control)
[17] = Postemergence, 125 g ai/ha, scale 0 to 100 (0 no effect, 100 complete control)
[18] = Postemergence, 250 g ai/ha, scale 0 to 100 (0 no effect, 100 complete control), 13 to 15 days
[19] = Postemergence, 62 g ai/ha, scale 0 to 100 (0 no effect, 100 complete control)
[20] = Preemergence, 31 g ai/ha, scale 0 to 100 (0 no effect, 100 complete control)
[21] = Preemergence, 62 g ai/ha, scale 0 to 100, 0 no effect, 100 complete control
[22] = Preemergence, 125 g ai/ha, scale 0 to 100, 0 no effect, 100 complete control
[23] = Preemergence, 250 g ai/ha, 0 to 100 scale

CCCc1ncc(C(=O)C2=C(O)CCCC2=O)c(=O)n1-c1ccccc1 [Compound 217]
Plant response rating, Foxtail, Giant [1, 16]: 70
Plant response rating, Foxtail, Giant [1, 17]: 85
Plant response rating, Foxtail, Giant [1, 18]: 90
Plant response rating, Foxtail, Giant [1, 19]: 75
Plant response rating, Foxtail, Giant [1, 20]: 5
Plant response rating, Foxtail, Giant [1, 21]: 40
Plant response rating, Foxtail, Giant [1, 22]: 75
Foxtail, Giant plant response rating [1, 23]: 85
Plant response rating, Crabgrass, Large [2, 16]: 80
Plant response rating, Crabgrass, Large [2, 17]: 90
Plant response rating, Crabgrass, Large [2, 18]: 98
Plant response rating, Crabgrass, Large [2, 19]: 85
Plant response rating, Crabgrass, Large [2, 20]: 95
Plant response rating, Crabgrass, Large [2, 21]: 100
Plant response rating, Crabgrass, Large [2, 22]: 100
Crabgrass, Large plant response rating [2, 23]: 100
Plant response rating, Bromegrass, Downy [3, 16]: 10
Plant response rating, Bromegrass, Downy [3, 17]: 40
Plant response rating, Bromegrass, Downy [3, 18]: 65
Plant response rating, Bromegrass, Downy [3, 19]: 15
Plant response rating, Bromegrass, Downy [3, 20]: 0
Plant response rating, Bromegrass, Downy [3, 21]: 0
Plant response rating, Bromegrass, Downy [3, 22]: 0
Bromegrass, Downy plant response rating [3, 23]: 0
Plant response rating, Blackgrass [4, 16]: 0
Plant response rating, Blackgrass [4, 17]: 30
Plant response rating, Blackgrass [4, 18]: 30
Plant response rating, Blackgrass [4, 19]: 5
Plant response rating, Blackgrass [4, 20]: 0
Plant response rating, Blackgrass [4, 21]: 0
Plant response rating, Blackgrass [4, 22]: 0
Blackgrass plant response rating [4, 23]: 0
Plant response rating, Johnsongrass [5, 16]: 0
Plant response rating, Johnsongrass [5, 17]: 60
Plant response rating, Johnsongrass [5, 18]: 65
Plant response rating, Johnsongrass [5, 19]: 60
Plant response rating, Johnsongrass [5, 20]: 0
Plant response rating, Johnsongrass [5, 21]: 5
Plant response rating, Johnsongrass [5, 22]: 20
Johnsongrass plant response rating [5, 23]: 55
Plant response rating, Kochia (kochia (Kochia scoparia); 31 g ai/ha, 0 to 100 scale (0 no effect, 100 complete control)): 75
Plant response rating, Kochia (kochia (Kochia scoparia); 125 g ai/ha, scale 0 to 100 (0 no effect, 100 complete control)): 100
Plant response rating, Kochia (kochia (Kochia scoparia); 250 g ai/ha, scale 0 to 100 (0 no effect, 100 complete control), 13 to 15 days): 100
Plant response rating, Kochia (kochia (Kochia scoparia); 62 g ai/ha, scale 0 to 100 (0 no effect, 100 complete control)): 98
Plant response rating, Corn (corn (Zea mays); [16]): 0
Plant response rating, Corn (corn (Zea mays); [17]): 25
Plant response rating, Corn (corn (Zea mays); [18]): 35
Plant response rating, Corn (corn (Zea mays); [19]): 10
Plant response rating, Corn (corn (Zea mays); [20]): 0
Plant response rating, Corn (corn (Zea mays); [21]): 0
Plant response rating, Corn (corn (Zea mays); [22]): 0
Corn plant response rating (corn (Zea mays); [23]): 0
Plant response rating, Lambsquarters [6, 16]: 90
Plant response rating, Lambsquarters [6, 17]: 100
Plant response rating, Lambsquarters [6, 18]: 100
Plant response rating, Lambsquarters [6, 19]: 100
Plant response rating, Lambsquarters [6, 20]: 95
Plant response rating, Lambsquarters [6, 21]: 100
Plant response rating, Lambsquarters [6, 22]: 100
Lambsquarters plant response rating [6, 23]: 100
Plant response rating, Surinam Grass [7, 16]: 70
Plant response rating, Surinam Grass [7, 18]: 95
Plant response rating, Surinam Grass [7, 19]: 80
Plant response rating, Surinam Grass [7, 20]: 45
Plant response rating, Surinam Grass [7, 21]: 75
Plant response rating, Surinam Grass [7, 22]: 85
Surinam Grass plant response rating [7, 23]: 90
Plant response rating, Goosegrass [8, 16]: 80
Plant response rating, Goosegrass [8, 17]: 85
Plant response rating, Goosegrass [8, 18]: 95
Plant response rating, Goosegrass [8, 19]: 80
Plant response rating, Goosegrass [8, 20]: 95
Plant response rating, Goosegrass [8, 21]: 98
Plant response rating, Goosegrass [8, 22]: 100
Goosegrass plant response rating [8, 23]: 100
Plant response rating, Ragweed [9, 16]: 80
Plant response rating, Ragweed [9, 18]: 98
Plant response rating, Ragweed [9, 19]: 80
Plant response rating, Ragweed [9, 20]: 60
Plant response rating, Ragweed [9, 21]: 60
Plant response rating, Ragweed [9, 22]: 90
Ragweed plant response rating [9, 23]: 95
Plant response rating, Nutsedge, Yellow [10, 16]: 10
Plant response rating, Nutsedge, Yellow [10, 17]: 70
Plant response rating, Nutsedge, Yellow [10, 18]: 70
Plant response rating, Nutsedge, Yellow [10, 19]: 60
Plant response rating, Nutsedge, Yellow [10, 20]: 60
Plant response rating, Nutsedge, Yellow [10, 21]: 65
Plant response rating, Nutsedge, Yellow [10, 22]: 70
Nutsedge, Yellow plant response rating [10, 23]: 90
Plant response rating, Ryegrass, Italian [11, 16]: 0
Plant response rating, Ryegrass, Italian [11, 18]: 40
Plant response rating, Ryegrass, Italian [11, 19]: 30
Plant response rating, Ryegrass, Italian [11, 20]: 0
Plant response rating, Ryegrass, Italian [11, 21]: 0
Plant response rating, Ryegrass, Italian [11, 22]: 5
Ryegrass, Italian plant response rating [11, 23]: 10
Plant response rating, Velvetleaf [12, 16]: 98
Plant response rating, Velvetleaf [12, 18]: 100
Plant response rating, Velvetleaf [12, 19]: 98
Plant response rating, Velvetleaf [12, 20]: 95
Plant response rating, Velvetleaf [12, 21]: 100
Plant response rating, Velvetleaf [12, 22]: 100
Velvetleaf plant response rating [12, 23]: 100
Plant response rating, Bermudagrass [13, 16]: 70
Plant response rating, Bermudagrass [13, 17]: 98
Plant response rating, Bermudagrass [13, 18]: 100
Plant response rating, Bermudagrass [13, 19]: 85
Plant response rating, Bermudagrass [13, 20]: 98
Plant response rating, Bermudagrass [13, 21]: 100
Plant response rating, Bermudagrass [13, 22]: 100
Bermudagrass plant response rating ([13]; Preemergence, 250 g ai/ha, 0 to 100 scale, 0 no effect, 100 complete control): 100
Plant response rating, Cupgrass, Woolly [14, 16]: 25
Plant response rating, Cupgrass, Woolly [14, 17]: 45
Plant response rating, Cupgrass, Woolly [14, 18]: 55
Plant response rating, Cupgrass, Woolly [14, 19]: 45
Plant response rating, Cupgrass, Woolly [14, 20]: 0
Plant response rating, Cupgrass, Woolly [14, 21]: 5
Plant response rating, Cupgrass, Woolly [14, 22]: 65
Cupgrass, Woolly plant response rating [14, 23]: 80
Plant response rating, Foxtail, Green [15, 16]: 55
Plant response rating, Foxtail, Green [15, 17]: 85
Plant response rating, Foxtail, Green [15, 18]: 90
Plant response rating, Foxtail, Green [15, 19]: 60
Plant response rating, Foxtail, Green [15, 20]: 0
Plant response rating, Foxtail, Green [15, 21]: 0
Plant response rating, Foxtail, Green [15, 22]: 0
Foxtail, Green plant response rating [15, 23]: 90
